The results in this text go back to patent US5100785A, “Polycyclic ether antibiotic” (Pfizer Inc., priority 1984, dated 1992).

A value given as a limit tells only on which side of the number the result lay.

One experiment concerns Staphylococcus aureus. Kind of experiment: in vitro antibacterial activity (MIC), Staphylococcus aureus. The conditions noted are these: 24 hours. The experiment is classed as cell-based. As to the method: (§1) In Table I, below, the results of in vitro tests are summarized. For this test each organism is innoculated in a series of test tubes containing nutrient medium and varying concentrations of Antibiotic UK-58,852 to determine the minimal concentration of the compound in mcg./ml. which inhibits the growth of the organism over a period of 24 hours (MIC).

The next experiment deals with Streptococcus faecalis. The experiment is described as follows: in vitro antibacterial activity (MIC), Streptococcus faecalis. The experiment is classed as cell-based. The settings on record: strain 02A006; 24 hours.
In a further experiment the test system is Streptococcus pyogenes. Kind of experiment: in vitro antibacterial activity (MIC), Streptococcus pyogenes. The experiment is classed as cell-based. The conditions noted are these: strain 020303; 24 hours.
Another experiment deals with Actinomyces pyogenes. Kind of experiment: in vitro antibacterial activity (MIC), Actinomyces pyogenes. The conditions noted are these: strain 14D011; 24 hours. The experiment is classed as cell-based.
In experiment [1] the test system is Actinobacillus pleuropneumoniae. Kind of experiment: in vitro antibacterial activity (MIC), Actinobacillus pleuropneumoniae. The experiment is classed as cell-based. The conditions noted are these: 24 hours.
The next experiment concerns Pasteurella multocida. Kind of experiment: in vitro antibacterial activity (MIC), Pasteurella multocida. The experiment is classed as cell-based. The settings on record: strain 59A006; 24 hours.
The next experiment has as its system Bacteroides fragilis. Kind of experiment: in vitro antibacterial activity (MIC), Bacteroides fragilis. The conditions noted are these: strain 78C024; 24 hours. The experiment is classed as cell-based.
For experiment [2], the system named is Fusobacterium necrophorum. The experiment is described as follows: in vitro antibacterial activity (MIC), Fusobacterium necrophorum. The experiment is classed as cell-based. The settings on record: strain 84C004; 24 hours.
The next experiment relates to Treponema hyodysenteriae. The experiment is described as follows: in vitro antibacterial activity (MIC), Treponema hyodysenteriae. The experiment is classed as cell-based. The conditions noted are these: strain 94A007; 24 hours.
The test system of another experiment is Escherischia coli. The experiment is described as follows: in vitro antibacterial activity (MIC), Escherischia coli. The experiment is classed as cell-based. The conditions noted are these: gram-negative; 24 hours. As to the method:
as §1

Another experiment has as its system Pseudomonas aeruginosa. Kind of experiment: in vitro antibacterial activity (MIC), Pseudomonas aeruginosa. The experiment is classed as cell-based. The settings on record: gram-negative; 24 hours. As to the method:
as §1

Another experiment has as its system Klebsiella pneumoniae. The experiment is described as follows: in vitro antibacterial activity (MIC), Klebsiella pneumoniae. The settings on record: gram-negative; 24 hours. The experiment is classed as cell-based. As to the method: as §1
A further experiment has as its system Serratia marcescens. The experiment is described as follows: in vitro antibacterial activity (MIC), Serratia marcescens. The experiment is classed as cell-based. The conditions noted are these: gram-negative; 24 hours. As to the method:
as §1

Experiment [3] concerns Enterobacteriaceae aerogenes. Kind of experiment: in vitro antibacterial activity (MIC), Enterobacteriaceae aerogenes. The experiment is classed as cell-based. The conditions noted are these: gram-negative; 24 hours. As for the experimental part:
as §1

The next experiment relates to rumen fluid. The experiment is described as follows: in vitro rumen technique, propionic acid production. The settings on record: 39° C., about 16 hours; for increase in propionic acid production: 10 mcg/ml., separate experiment with CP-70,228; for increase in the production of propionic acid over control: 10 micrograms per milliliter, experiment with UK-58,852.
The test system of a further experiment is Eimeria tenella. The experiment is described as follows: in vivo anticoccidial activity in chickens, Eimeria tenella. The conditions noted are these: for AVERAGE DEGREE OF INFECTION / WEIGHT GAIN (PERCENT): chickens, after six days.
In a further experiment the test system is Eimeria acervulina. The experiment is described as follows: in vivo anticoccidial activity in chickens, Eimeria acervulina. The conditions noted are these: for AVERAGE DEGREE OF INFECTION / WEIGHT GAIN (PERCENT): chickens, after five days.
For another experiment, the system named is Clostridium perfringens. The experiment is classed as cell-based. The settings on record: strain 10A009; 24 hours.
Another experiment deals with E. maxima. The experiment is described as follows: in vivo anticoccidial activity in chickens, E. maxima. The conditions noted are these: diet of chickens, 25 to 150 ppm.
The subject of another experiment is E. brunetti. Kind of experiment: in vivo anticoccidial activity in chickens, E. brunetti. The conditions noted are these: diet of chickens, 25 to 150 ppm.
In the next experiment the test system is E. necatrix. The experiment is described as follows: in vivo anticoccidial activity in chickens, E. necatrix. The settings on record: diet of chickens, 25 to 150 ppm.
[4] abbreviates: diet of chickens, 25 to 150 ppm.

As a reminder, the MIC is the smallest concentration in the dilution series that meets the test's criterion for growth inhibition. For `COC1CCC(OC2CC(C3OC(C)(OC)C(C)CC3C)OC2C2(C)CCC(C3(C)CCC4(CC(O)C(C)C(C(C)C5OC(O)(CC(=O)[O-])C(C)C(OC6CCC(OC)C(C)O6)C5OC)O4)O3)O2)OC1C.[Na+]` (centres unmarked) [CP-70,228 Sodium Salt], the minimal inhibitory concentration (MIC) in the experiment on Staphylococcus aureus (strain 01A005) turned out to be 3.12 µg/mL; in the experiment with Staphylococcus aureus (strain 01A052) it was 3.12 µg/mL; in the experiment on Staphylococcus aureus (strain 01A110), 3.12 µg/mL; against Staphylococcus aureus (strain 01A400), 6.25 µg/mL; against Streptococcus faecalis it was 50 µg/mL; against Streptococcus pyogenes, 0.10 µg/mL. In addition, the minimal inhibitory concentration (MIC) in the experiment with Actinomyces pyogenes is 0.34 µg/mL; in experiment [1] (strain 54B004), > 100 µg/mL; in the experiment with Pasteurella multocida, > 100 µg/mL; in the experiment on Bacteroides fragilis, 12.5 µg/mL; in experiment [2] it was > 100 µg/mL; in the experiment on Treponema hyodysenteriae, 1.58 µg/mL. Besides, the MIC (in the experiment on Escherischia coli; against Pseudomonas aeruginosa; against Klebsiella pneumoniae; in the experiment with Serratia marcescens; in experiment [3]) was > 50 µg/mL each time.
With `COC1CCC(OC2CC(C3OC(C)(OC)C(C)CC3C)OC2C2(C)CCC(C3(C)CCC4(CC(O)C(C)C(C(C)C5OC(O)(CC(=O)O)C(C)C(OC6CCC(OC)C(C)O6)C5OC)O4)O3)O2)OC1C` (centres unmarked) [CP-70,228], the “increase in propionic acid production” value in the experiment with rumen fluid is listed as “about 30%”. The “AVERAGE DEGREE OF INFECTION” value with Eimeria tenella (25 ppm in feed) turned out to be 2.7; in the experiment on Eimeria tenella (50 ppm in feed), 1.3; in the experiment with Eimeria tenella (75 ppm in feed), 0.3; in the experiment with Eimeria tenella (100 ppm in feed), 0.0; in the experiment on Eimeria acervulina (25 ppm in feed), 1.2; with Eimeria acervulina (50 ppm in feed), 0.0. Besides, the “AVERAGE DEGREE OF INFECTION” value in the experiment on Eimeria acervulina (75 ppm in feed) and with Eimeria acervulina (100 ppm in feed) was 0.0 each time. Also, the “WEIGHT GAIN (PERCENT)” value in the experiment with Eimeria tenella (25 ppm in feed) was found to be 80%; in the experiment with Eimeria tenella (50 ppm in feed), 103%; in the experiment with Eimeria tenella (75 ppm in feed), 63%; in the experiment on Eimeria tenella (100 ppm in feed) it was 95%; in the experiment with Eimeria acervulina (25 ppm in feed) it was 40%; with Eimeria acervulina (50 ppm in feed), 70%. The “WEIGHT GAIN (PERCENT)” value in the experiment with Eimeria acervulina (75 ppm in feed) and in the experiment on Eimeria acervulina (100 ppm in feed) was 100% in each case.
Regarding `CC[C@@H](C(=O)[C@@H](C)[C@@H](O)[C@H](C)[C@@H]1O[C@@H]([C@@H](CC)C(=O)O)CC[C@@H]1C)[C@H]1O[C@]2(C=C[C@@H](O)[C@]3(CC[C@@](C)([C@H]4CC[C@](O)(CC)[C@H](C)O4)O3)O2)[C@H](C)C[C@@H]1C` [salinomycin, reference compound], in the experiment on rumen fluid, the “increase in propionic acid production” value is “about 40%” and the “increase in the production of propionic acid over control” value was ~88%.
As to `COC1CCC(OC2CC(C3OC(C)(OC)C(C)CC3C)OC2C2(C)CCC(C3(C)CCC4(CC(OC)C(C)C(C(C)C5OC(O)(CC(=O)[O-])C(C)C(OC6CCC(OC)C(C)O6)C5OC)O4)O3)O2)OC1C.[Na+]` (centres unmarked) [CP-70,828 Sodium Salt], the MIC with Staphylococcus aureus (strain 01A005) is 25 µg/mL; against Staphylococcus aureus (strain 01A052), 25 µg/mL; in the experiment with Staphylococcus aureus (strain 01A110), 25 µg/mL; in the experiment on Staphylococcus aureus (strain 01A400), 25 µg/mL; with Streptococcus faecalis, > 50 µg/mL; in the experiment on Streptococcus pyogenes it was 3.12 µg/mL. The MIC (in the experiment with Escherischia coli; with Pseudomonas aeruginosa; against Klebsiella pneumoniae; in the experiment on Serratia marcescens; in [3]) was > 50 µg/mL throughout.
For `COC1CCC(OC2CC(C3OC(C)(O)C(C)CC3C)OC2C2(C)CCC(C3(C)CCC4(CC(O)C(C)C(C(C)C5OC(O)(CC(=O)[O-])C(C)C(OC6CCC(OC)C(C)O6)C5OC)O4)O3)O2)OC1C.[Na+]` (centres unmarked) [UK-58,852 (sodium salt)], the minimum inhibitory concentration (MIC) with Staphylococcus aureus (strain 01A005) was 3.12 µg/mL; in the experiment on Staphylococcus aureus (strain 01A052) it was 3.12 µg/mL; against Staphylococcus aureus (strain 01A110), 3.12 µg/mL; with Staphylococcus aureus (strain 01A400), 6.25 µg/mL; against Streptococcus faecalis, > 50 µg/mL; against Streptococcus pyogenes, 0.05 µg/mL. Further, the MIC was 0.08 µg/mL against Actinomyces pyogenes; > 25 µg/mL in experiment [1] (strain 44B004); > 200 µg/mL against Pasteurella multocida; 0.79 µg/mL in the experiment on Clostridium perfringens; 0.10 µg/mL against Bacteroides fragilis; > 25 µg/mL in experiment [2]. For the same compound, the MIC is 0.39 µg/mL against Treponema hyodysenteriae; > 50 µg/mL in the experiment with Escherischia coli; > 50 µg/mL against Pseudomonas aeruginosa; > 50 µg/mL in the experiment on Klebsiella pneumoniae; > 50 µg/mL in the experiment on Serratia marcescens; > 50 µg/mL in [3].
Turning to `COC1CCC(OC2CC(C3OC(C)(O)C(C)CC3C)OC2C2(C)CCC(C3(C)CCC4(CC(O)C(C)C(C(C)C5OC(O)(CC(=O)O)C(C)C(OC6CCC(OC)C(C)O6)C5OC)O4)O3)O2)OC1C` (centres unmarked) [UK-58,852], the “increase in the production of propionic acid over control” value in the experiment on rumen fluid is “about 93%”. Also, the “controlling infections due to E. maxima” value in the experiment with E. maxima is “effective”. In addition, in the experiment with E. brunetti, the “controlling infections due to E. brunetti” value is “effective”. The “controlling infections due to E. necatrix” value in the experiment with E. necatrix is reported as “effective”. The “AVERAGE DEGREE OF INFECTION” value in the experiment on Eimeria tenella (25 ppm in feed), in the experiment with Eimeria tenella (50 ppm in feed), with Eimeria tenella (75 ppm in feed), in the experiment with Eimeria tenella (100 ppm in feed), with Eimeria tenella (125 ppm in feed) and in the experiment with Eimeria tenella (150 ppm in feed) was 0.0 each time. In addition, the “AVERAGE DEGREE OF INFECTION” value with Eimeria acervulina (25 ppm in feed), with Eimeria acervulina (50 ppm in feed), in the experiment on Eimeria acervulina (75 ppm in feed), in the experiment with Eimeria acervulina (100 ppm in feed), in the experiment with Eimeria acervulina (125 ppm in feed) and with Eimeria acervulina (150 ppm in feed) was 0.0 throughout. Further, the “WEIGHT GAIN (PERCENT)” value in the experiment on Eimeria tenella (25 ppm in feed) worked out at 93%; with Eimeria tenella (50 ppm in feed), 45%; in the experiment with Eimeria tenella (75 ppm in feed), 28%; with Eimeria tenella (100 ppm in feed), 8%; in the experiment with Eimeria tenella (125 ppm in feed), 4%; with Eimeria tenella (150 ppm in feed), 0%. The “WEIGHT GAIN (PERCENT)” value with Eimeria acervulina (25 ppm in feed) is 98%; in the experiment on Eimeria acervulina (50 ppm in feed) it was 62%; in the experiment on Eimeria acervulina (75 ppm in feed), 0%; with Eimeria acervulina (100 ppm in feed), 23%; with Eimeria acervulina (125 ppm in feed) it was 0%; in the experiment with Eimeria acervulina (150 ppm in feed), 0%. Also, in the experiment on Eimeria tenella (setting [4]), the “controlling infections due to Eimeria tenella” value is “effective”. Also, in the experiment on Eimeria acervulina (setting [4]), the “controlling infections due to E. acervulina” value is given as “effective”.
